Test results: patent US8785655B2, “Ionic liquid solvents” (Dublin City University, priority 2009, dated 2014)

Key:
[1] = system: Staphylococcus aureus CCM 4516/08; experiment: Screen against bacteria, MIC/IC80; assay type: cell-based; conditions: SA
[2] = system: Absidia corymbifera 272; experiment: In vitro antifungal activity, MIC by microdilution (NCCLS M27-A); conditions: AC
[3] = system: Escherichia coli CCM4517; experiment: Screen against bacteria, MIC/IC80; assay type: cell-based; conditions: EC
[4] = system: Enterococcus sp. J 14365/08; experiment: Screen against bacteria, MIC/IC80; assay type: cell-based; conditions: EF
[5] = system: Candida glabrata 20/l; experiment: In vitro antifungal activity, MIC by microdilution (NCCLS M27-A); conditions: CG
Description: (§1) In vitro antifungal activities of the compounds were evaluated on the collection of fungal strains deposited at the Department of Biological and Medical Sciences, Faculty of Pharmacy, Charles University, Czech Republic. All the isolates were maintained on Sabouraud dextrose agar prior to being tested.
(§2) Minimum inhibitory concentrations (MICs) were determined by the microdilution format of the NCCLS M27-A guidelines. […] RPMI 1640 (Sevapharma, Prague) medium supplemented with L-glutamine and buffered with 0.165 M morpholinepropanesulfonic acid to pH 7.0 was used as the test medium. The wells of the microdilution tray contained 100 μl of the RPMI 1640 medium with 2-fold serial dilutions of the compounds (1000 to 0.24 μmol/l for the new compounds) and 100 μl of inoculum suspension. Fungal inoculum in RPMI 1640 was prepared to give a final concentration of 5×103±0.2 cfu·ml-1. The trays were incubated at 35° C. and MICs were read visually for filamentous fungi and photometrically for yeasts as an optical density (OD) at 540 nm after 24 h and 48 h. The MICs were defined as 80% inhibition of the growth of control. MICs were determined twice and in duplicate. The deviations from the usually obtained were no higher than the nearest concentration value up and down the dilution scale.

[6] = system: Staphylococcus epidermidis H 6966/08; experiment: Screen against bacteria, MIC/IC80; assay type: cell-based; conditions: SE
[7] = system: Candida lusitaniae 2446/l; experiment: In vitro antifungal activity, MIC by microdilution (NCCLS M27-A); conditions: CL
[8] = system: Candida krusei E28; experiment: as above
[9] = system: Staphylococcus aureus H 5996/08 Methiciline-resistant; experiment: Screen against bacteria, MIC/IC80; assay type: cell-based; conditions: MRSA
[10] = system: Aspergillus fumigatus 231; experiment: In vitro antifungal activity, MIC by microdilution (NCCLS M27-A); conditions: AF
[11] = system: Klebsiella pneumoniae J 14368/08 ESBL-positive; experiment: Screen against bacteria, MIC/IC80; assay type: cell-based; conditions: KP-E
[12] = system: Candida albicans ATCC 44859; experiment: In vitro antifungal activity, MIC by microdilution (NCCLS M27-A)
[13] = system: Candida parapsilosis ATCC 22019; experiment: as above; conditions: CP
Description: as §1, §2

[14] = system: Klebsiella pneumoniae D 11750/08; experiment: Screen against bacteria, MIC/IC80; assay type: cell-based; conditions: KP
[15] = system: Trichophyton mentagrophytes 445; experiment: In vitro antifungal activity, MIC by microdilution (NCCLS M27-A); conditions: TM
[16] = system: Candida albicans ATCC 90028; experiment: as above
[17] = system: Candida tropicalis 156; experiment: as above; conditions: CT
[18] = system: Candida krusei ATCC 6258; experiment: as above
[19] = system: Pseudomonas aeruginosa CCM 1961; experiment: Screen against bacteria, MIC/IC80; assay type: cell-based; conditions: PA

Measured: MIC/IC80

CCCCCOC(=O)[C@@H](C)OC(=O)C[n+]1ccn(C)c1 [KG159, R-3-methyl-1-[1-(pentoxycarbonyl)-1-methylmethoxycarbonylmethyl]imidazolium bromide]
>1000 µmol/L: [1]; 24 h | [1]; 48 h | [2]; 24 h | [2]; 48 h | [3]; 24 h | [3]; 48 h | [4]; 24 h | [4]; 48 h | [5]; 24 h | [5]; 48 h | [6]; 24 h | [6]; 48 h | [7]; 24 h | [7]; 48 h | [8]; CK2, 24 h | [8]; CK2, 48 h | [9]; 24 h | [9]; 48 h | [10]; 24 h | [10]; 48 h | [11]; 24 h | [11]; 48 h | [12]; CA1, 24 h | [12]; CA1, 48 h | [13]; 24 h | [13]; 48 h | [14]; 24 h | [14]; 48 h | [15]; 72 h | [15]; 120 h | [16]; CA2, 24 h | [16]; CA2, 48 h | [17]; 24 h | [17]; 48 h | [18]; CK1, 24 h | [18]; CK1, 48 h | [19]; 24 h | [19]; 48 h

COC(=O)C(OC(=O)C[n+]1ccn(C)c1)c1ccccc1 (centres unmarked) [KG89, RS-3-methyl-1-[1-(methoxycarbonyl)-1-phenylmethoxycarbonylmethyl]imidazolium bromide]
>1000 µmol/L: [1]; 24 h | [1]; 48 h | [2]; 24 h | [2]; 48 h | [3]; 24 h | [3]; 48 h | [4]; 24 h | [4]; 48 h | [5]; 24 h | [5]; 48 h | [6]; 24 h | [6]; 48 h | [7]; 24 h | [7]; 48 h | [8]; CK2, 24 h | [8]; CK2, 48 h | [9]; 24 h | [9]; 48 h | [10]; 24 h | [10]; 48 h | [11]; 24 h | [11]; 48 h | [12]; CA1, 24 h | [12]; CA1, 48 h | [13]; 24 h | [13]; 48 h | [14]; 24 h | [14]; 48 h | [15]; 72 h | [15]; 120 h | [16]; CA2, 24 h | [16]; CA2, 48 h | [17]; 24 h | [17]; 48 h | [18]; CK1, 24 h | [18]; CK1, 48 h | [19]; 24 h | [19]; 48 h

CCCCCCCCOS(=O)(=O)[O-].CCOCCOC(=O)C(C)OC(=O)Cn1cc[n+](C)c1 (centres unmarked) [KG172, RS-3-methyl-1-[1-(ethoxyethoxycarbonyl)-1-methylmethoxycarbonylmethyl]imidazolium octyl sulphate]
>1000 µmol/L: [1]; 24 h | [1]; 48 h | [2]; 24 h | [2]; 48 h | [3]; 24 h | [3]; 48 h | [4]; 24 h | [4]; 48 h | [5]; 24 h | [5]; 48 h | [6]; 24 h | [6]; 48 h | [7]; 24 h | [7]; 48 h | [8]; CK2, 24 h | [8]; CK2, 48 h | [9]; 24 h | [9]; 48 h | [10]; 24 h | [10]; 48 h | [11]; 24 h | [11]; 48 h | [12]; CA1, 24 h | [12]; CA1, 48 h | [13]; 24 h | [13]; 48 h | [14]; 24 h | [14]; 48 h | [15]; 72 h | [15]; 120 h | [16]; CA2, 24 h | [16]; CA2, 48 h | [17]; 24 h | [17]; 48 h | [18]; CK1, 24 h | [18]; CK1, 48 h | [19]; 24 h | [19]; 48 h

CCCCCCCCOS(=O)(=O)[O-].COC(=O)[C@@H](OC(=O)Cn1cc[n+](C)c1)c1ccccc1 [KG88, S-3-methyl-1-[1-(methoxycarbonyl)-1-phenylmethoxycarbonylmethyl]imidazolium octyl sulphate]
>1000 µmol/L: [1]; 24 h | [1]; 48 h | [2]; 24 h | [2]; 48 h | [3]; 24 h | [3]; 48 h | [4]; 24 h | [4]; 48 h | [5]; 24 h | [5]; 48 h | [6]; 24 h | [6]; 48 h | [7]; 24 h | [7]; 48 h | [8]; CK2, 24 h | [8]; CK2, 48 h | [9]; 24 h | [9]; 48 h | [10]; 24 h | [10]; 48 h | [11]; 24 h | [11]; 48 h | [12]; CA1, 24 h | [12]; CA1, 48 h | [13]; 24 h | [13]; 48 h | [14]; 24 h | [14]; 48 h | [15]; 72 h | [15]; 120 h | [16]; CA2, 24 h | [16]; CA2, 48 h | [17]; 24 h | [17]; 48 h | [18]; CK1, 24 h | [18]; CK1, 48 h | [19]; 24 h | [19]; 48 h
